# Patent US9107891B2, “Method for alleviating fear memory” (NIPPON SUISAN KAISHA, LTD., priority 2011, dated 2015)
# How the values were obtained:
# fear memory in mice = test: Fear conditioning test (freezing time); type: in vivo; details: administered 30 minutes before fear conditioning, 5% krill oil diet 6 weeks
# Excerpt: The present inventors evaluated the actions of food ingredients on fear memory by the “fear conditioning experiment” (J Neurosci 27 158-166, 2007) which is extensively used as an evaluation system for fear memory in mice.
# A cubic experimental box made of acrylic resin having a bottom of 20 cm×20 cm and a height of 33 cm, with a conductive metallic grid being laid across the bottom, was used as a new environment for conditioning; each mouse was put into the experimental box and conditioned by applying electric shocks (0.8 mA, 2 s) from the bottom grid. Feeling an intense pain from each electric shock, a mouse memorizes that when placed in the new environment, it will suffer pain from electric shocks. The mice were then returned to the breeding cage where they had been kept before the conditioning.
# On the next day (the second day of the behavioral experiment), each mouse was put again into the experimental box where it was given electric shocks on the previous day; even in the absence of applied electric shocks, it would be scared to cringe, a characteristic freezing behavior from fear. The degree of fear memory was assessed by the degree of the freezing behavior, namely, the freezing time during a 3-minute exposure to the experimental box. […]
# [1] = tested on: pyramidal cells in the basolateral nucleus of amygdala; test: Patch-clamp in brain slices: depolarization-induced suppression of excitation (DSE); type: cell-based; set-up: unit of the concentration uncertain; details: both groups of mice
# Excerpt: Patch-clamp recordings from pyramidal cells in the amygdala were taken in accordance with the methods described in Non-Patent Documents 21 and 22. […] The access resistance was frequently checked during recording and any cells that experienced substantial changes (±20%) in its value during recording were excluded from analysis.
# Whole-cell patch recordings were taken from pyramidal cells in the basolateral nucleus of amygdala. A bipolar glass electrode filled with an artificial cerebrospinal fluid was placed in the vicinity of the cell to be recorded and an electric stimulus was applied to the slice. First, the evoked excitatory postsynaptic current (eEPSC) was recorded from neurons in the amygdala. Subsequently, the cell being recorded was depolarized for 10 seconds and, immediately thereafter, eEPSC was recorded again. The ratio of the amplitude of eEPSC after depolarization (Ipost) to that of EPSC before depolarization (Ipre) (Ipost/Ipre) was calculated, and was used to assess the degree of DSE. In addition, to confirm the cannabinoid receptor dependency of DSE, recording was conducted with a brain slice immersed in an artificial cerebrospinal fluid containing rimonabant (5 mM). […] Thus, DSE was recorded in a brain slice immersed in an artificial cerebrospinal fluid containing capsaicin (10 mM) and the resulting changes were also studied.
smiles,measurement,setting,value
Cc1c(C(=O)NN2CCCCC2)nn(-c2ccc(Cl)cc2Cl)c1-c1ccc(Cl)cc1 [rimonabant],"freezing time, rimonabant-administered krill oil group vs solvent-administered control group","fear memory in mice; Test Example 11, FIG. 12",No significant difference
same,effect on DSE,[1]; brain slice in artificial cerebrospinal fluid containing rimonabant (5 (unit uncertain)),suppressed DSE almost completely
C=CCN1CC[C@]23c4c5ccc(O)c4O[C@H]2C(=O)CC[C@@]3(O)[C@H]1C5 [naloxone],"freezing time, naloxone-administered krill oil group vs solvent-administered krill group","fear memory in mice; Test Example 12, FIG. 13",no difference in freezing time
COc1cc(CNC(=O)CCCC/C=C/C(C)C)ccc1O [capsaicin],effect on DSE,[1]; brain slice in artificial cerebrospinal fluid containing capsaicin (10 (unit uncertain)),suppress DSE
